Where two headings read alike, the source gives them in different places.
Experiments:
ACHN CSC = assay: Cancer stem cells, Cell Titer-Glo 72 hours (Test Example 3); type: cell-based; details: Homo sapiens, ACHN, 72 h
p-RPS6 Ser240/244 = assay: Kinase inhibition, Western blot in HeLa cells (Test Example 5); type: cell-based; details: Homo sapiens, 6 hours, DMSO = 100, read-out: p-RPS6 Ser240/244 Relative Intensity (%)
Method: (§1) HeLa cells were treated with 5 uM of the indicated compound for 6 hours. Following compound incubation, cells were washed twice with ice-cold PBS and lysed in lysis buffer (50 mM HEPES, pH 7.5, 1% Nonidet P40, 150 mM NaCl, 1 mM EDTA, 1× protease inhibitor cocktail (Promega)). 30 micrograms of soluble protein was separated by SDS-PAGE and transferred to PVDF membranes. Primary antibodies against p-AMPK Thr172, p-RPS6 Ser235/236, p-RPS6 Ser240/244, and Tubulin (Cell Signaling Technology) were used. The antigen-antibody complexes were visualized by enhanced chemiluminescence (BioRad). The results are shown below in Tables 17A-17E.

p-RPS6 Ser235/236 = assay: as above; type: cell-based; details: Homo sapiens, 6 hours, DMSO = 100, read-out: p-RPS6 Ser235/236 Relative Intensity (%)
Method: as §1

p-AMPK Thr172 = assay: as above; type: cell-based; details: Homo sapiens, 6 hours, DMSO = 100, read-out: p-AMPK Relative Intensity (%)
Method: as §1

FaDu CSC = assay: Cancer stem cells, Cell Titer-Glo 72 hours (Test Example 3); type: cell-based; details: Homo sapiens, FaDu, 72 h
A549 = assay: Bulk cancer cells, Cell Titer-Glo 72 hours (Test Example 2); type: cell-based; details: Homo sapiens
Method: (§2) Tubes of 3× drug (60 uM in 500 uL complete media) were prepared from 5 mM stock solutions in DMSO. […] To treat cells, 50 uL of drug from the dilution plate was removed and added to the cell plates. […] Cells were harvested 72 hours after drug addition using Cell Titer-Glo (Promega) and luminescence measured on a plate reader.

FaDu = assay: as above; type: cell-based; details: Homo sapiens
Method: as §2

ACHN = assay: as above; type: cell-based; details: Homo sapiens, ACHN, 72 h
Method: as §2

A549 CSC = assay: Cancer stem cells, Cell Titer-Glo 72 hours (Test Example 3); type: cell-based; details: Homo sapiens
human RIOK2 protein = biological target: T1, human RIOK2 protein (Homo sapiens, UniProt Q9BVS4); assay: RIOK2 autophosphorylation ELISA (Test Example 4); type: biochemical
T1 construct: glutathione S-transferase is fused to N-terminal of a full-length human RIOK2 protein; GST (glutathione S-transferase) (N); purchased CarnaBio, Inc; host or cells: baculovirus-Sf21 cell expression system
Method: A protein in which glutathione S-transferase is fused to N-terminal of a full-length human RIOK2 protein was used as a recombinant human RIOK2 protein. The protein was prepared using a baculovirus-Sf21 cell expression system from CarnaBio, Inc. A kinase reaction solution was prepared by mixing 25 μg/mL of the recombinant human RIOK2 protein and 100 μM of ATP in 20 μl of kinase reaction buffer (50 mM Tris-HCl, 10 mM MgCl2, 10 mM MnCl2, 1 mM DTT, 0.01% Brij, 1× PhosSTOP (manufactured by Roche Applied Science)), and was incubated at a temperature of 30° C. for 1 hour. After adding 30 μl of 40 mM EDTA solution to this kinase reaction solution, the kinase reaction solution was transferred to a MaxiSorp 96 well plate (manufactured by Nunc). Thereafter, phosphorylated human RIOK2 protein was allowed to adsorb onto the wells by leaving the plate in a refrigerator overnight.
The following day, the supernatant was removed, and the wells were washed three times with ELISA buffer (20 mM Tris-HCl, 150 mM NaCl, 0.2% Tween-20, 0.1% BSA). Thereafter, 100 μl of Blocking-One P (product name; manufactured by Nacalai Tesque, Inc.) was applied to the wells, and a blocking treatment was performed for 1 hour at room temperature. […] After further washing the wells, a secondary antibody, anti-rabbit IgG conjugated with horseradish peroxidase (manufactured by Jackson ImmunoResearch; 1/4000 ELISA buffer-diluted solution), was applied to the wells, and incubation was performed for 30 minutes at room temperature. After washing the wells once again, 50 μl of tetramethyl benzidine (TMB) aqueous solution (manufactured by Nacalai Tesque, Inc.) was applied to the wells, and a coloring reaction was performed for 30 minutes at room temperature. Thereafter, the coloring reaction was stopped by adding 50 μl of 2M H2SO4 to the wells. An absorptiometric level of 450 nm was measured in each well using ARVO SX (manufactured by Wallac).

T1 sequence (Q9BVS4 whole entry, the tested form may be a part): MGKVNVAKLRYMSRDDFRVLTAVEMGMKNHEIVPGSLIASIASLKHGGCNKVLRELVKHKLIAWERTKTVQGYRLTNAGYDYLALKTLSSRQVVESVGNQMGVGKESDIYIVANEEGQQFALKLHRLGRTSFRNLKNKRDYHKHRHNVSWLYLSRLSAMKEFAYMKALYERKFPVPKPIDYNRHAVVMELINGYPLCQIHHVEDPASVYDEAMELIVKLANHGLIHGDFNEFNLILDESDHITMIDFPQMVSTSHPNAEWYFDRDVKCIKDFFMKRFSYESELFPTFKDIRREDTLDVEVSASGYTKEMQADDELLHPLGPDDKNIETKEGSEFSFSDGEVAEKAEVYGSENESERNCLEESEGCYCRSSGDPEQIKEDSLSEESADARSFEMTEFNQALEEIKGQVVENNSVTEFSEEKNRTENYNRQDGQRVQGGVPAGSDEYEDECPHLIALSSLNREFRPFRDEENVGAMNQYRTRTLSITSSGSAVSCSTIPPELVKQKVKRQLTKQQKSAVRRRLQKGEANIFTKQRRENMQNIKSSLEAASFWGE

SMILES | IC50 (ACHN CSC) | activity at 5 µM (p-RPS6 Ser240/244; 5 uM compound, Western blot) | activity at 5 µM (p-RPS6 Ser235/236; 5 uM compound, Western blot) | activity at 5 µM (p-AMPK Thr172; 5 uM compound, Western blot) | IC50 (FaDu CSC) | IC50 (A549) | IC50 (FaDu) | IC50 (ACHN) | IC50 (A549 CSC) | activity at 5 µM (p-RPS6 Ser240/244; 5 uM) | activity at 5 µM (p-RPS6 Ser235/236; 5 uM) | activity at 5 µM (p-AMPK Thr172; 5 uM) | inhibition at 1 µM (human RIOK2 protein; read-out: Inhibitory activity at 1 μM (%)) | inhibition at 10 µM (human RIOK2 protein; read-out: Inhibitory activity at 10 μM (%))
CCN(CC)CCNC(=O)c1c(C)[nH]c(/C=C2\C(=O)Nc3c2cccc3-c2cncc(C)c2)c1C [Example 283] | 1970 nM | 59% | 47% | 50% | 2200 nM | 3360 nM | 6230 nM | 1680 nM | 2230 nM | – | – | – | – | –
CCN(CC)CCNC(=O)c1c(C)[nH]c(/C=C2\C(=O)Nc3ccc(-c4csc(-c5ccccc5)n4)nc32)c1C [Example 118] | 970 nM | – | – | – | 110 nM | 1740 nM | 1370 nM | 1370 nM | 620 nM | 42% | 5% | 35% | – | –
CCN(CC)CCNC(=O)c1c(C)[nH]c(/C=C2\C(=O)Nc3ccc(-c4ccc(-c5ccccc5)cn4)cc32)c1C [Example 197] | 650 nM | – | – | – | 4810 nM | 2020 nM | 2720 nM | 5380 nM | 3790 nM | 82% | 61% | 118% | – | –
CCN(CC)CCNC(=O)c1c(C)[nH]c(/C=C2\C(=O)Nc3c2cccc3-c2csc(-c3ccccc3)n2)c1C [Example 9] | 280 nM | – | – | – | 1260 nM | 1960 nM | 3750 nM | 3200 nM | 1570 nM | 32% | 2% | 144% | – | –
CCN(CC)CCNC(=O)c1c(C)[nH]c(/C=C2\C(=O)Nc3cccc(-c4ccc(-c5ccccc5)cc4)c32)c1C [Example 109] | 330 nM | – | – | – | 280 nM | 5090 nM | 1110 nM | 1600 nM | 4320 nM | 23% | 2% | 8% | – | –
CCN(CC)CCNC(=O)c1c(C)[nH]c(/C=C2\C(=O)Nc3c2cccc3-c2cncnc2)c1C [Example 282] | 10900 nM | 72% | 71% | 60% | 6730 nM | 21500 nM | 36300 nM | 16400 nM | 27500 nM | – | – | – | – | –
CCN(CC)CCNC(=O)c1c(C)[nH]c(/C=C2\C(=O)Nc3ccc(-c4ccc(-c5ccccc5)o4)cc32)c1C [Example 56, (Z)-N-(2-(diethylamino)ethyl)-2,4-dimethyl-5-((2-oxo-5-(5-phenylfuran-2-yl)indolin-3-ylidene)methyl)-1H-pyrrole-3-carboxamide] | 250 nM | – | – | – | 1410 nM | 4300 nM | 3090 nM | 3660 nM | 8250 nM | 64% | 19% | 144% | – | –
Cc1cc(C)c(/C=C2\C(=O)Nc3ccc(-c4csc(C5CCCNC5)n4)cc32)[nH]1 (centres unmarked) [Example 140] | 50 nM | – | – | – | 480 nM | 1340 nM | 1580 nM | 1640 nM | 1700 nM | 34% | 6% | 69% | – | –
CCN(CC)CCNC(=O)c1c(C)[nH]c(/C=C2\C(=O)Nc3c2cccc3-c2ccncc2)c1C [Example 284] | 4990 nM | 65% | 60% | 56% | 4410 nM | 6850 nM | 6740 nM | 6390 nM | 12600 nM | – | – | – | – | –
Cc1[nH]c(/C=C2\C(=O)Nc3ccc(-c4cnn(-c5ccccn5)c4)cc32)c(C)c1C(=O)NCCN1CCCC1 [Example 33] | 220 nM | – | – | – | 1650 nM | 2530 nM | 2530 nM | 1640 nM | 11700 nM | 92% | 82% | 52% | 53% | 91%
